In one experiment the target is PTGER2 (EP2) (Homo sapiens (Human), UniProt P43116). In words: hEP2 b-arrestin assay (PathHunter HEK 293 PTGER2 b-arrestin cells). As to conditions: antagonistic activity on hEP2; mean where measured multiple times. Format: cell-based. In short, it runs like this:
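Readout is β-galactosidase complementation luminescence, expressed as percent of DMSO control (duplicates). PathHunter HEK293 EP2/β-arrestin 2 cells, grown 24 h, received compound for 15 min at 37 °C before a 120 min challenge with PGE2 at 5 μM final, followed by 1 h detection at room temperature.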

For the next experiment, the target named is PTRGER4 (EP4) (Homo sapiens (Human), UniProt P35408). In words: hEP4 b-arrestin assay (PathHunter HEK 293 PTGER4 b-arrestin cells). Format: cell-based. As to conditions: antagonistic activity on hEP4; mean where measured multiple times. The method in brief: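 Antagonist mode: compound is given 15 min at 37 °C, then 20 nM (final) PGE2 for 120 min, in HEK293 cells stably expressing EP4 fused to ProLink and β-arrestin 2 fused to EA. Recruitment read as β-gal luminescence after 1 h reagent at room temperature, as percent of DMSO control.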
Sequence of PTRGER4 (EP4) (P35408 whole entry, looked up, the tested form may be a part): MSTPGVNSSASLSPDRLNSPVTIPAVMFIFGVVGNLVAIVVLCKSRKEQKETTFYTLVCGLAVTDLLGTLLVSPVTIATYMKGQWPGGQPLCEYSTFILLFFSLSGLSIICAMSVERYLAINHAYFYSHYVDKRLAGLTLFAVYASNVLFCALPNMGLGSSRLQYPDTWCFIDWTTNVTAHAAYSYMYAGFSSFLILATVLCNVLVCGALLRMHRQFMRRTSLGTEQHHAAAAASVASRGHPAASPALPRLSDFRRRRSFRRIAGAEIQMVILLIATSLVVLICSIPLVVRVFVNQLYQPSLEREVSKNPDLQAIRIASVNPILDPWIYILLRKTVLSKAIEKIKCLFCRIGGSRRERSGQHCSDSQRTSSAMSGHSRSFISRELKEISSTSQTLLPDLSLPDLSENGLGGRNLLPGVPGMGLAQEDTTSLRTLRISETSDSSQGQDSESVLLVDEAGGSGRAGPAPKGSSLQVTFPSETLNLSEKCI

Sequence of PTGER2 (EP2) (P43116 whole entry): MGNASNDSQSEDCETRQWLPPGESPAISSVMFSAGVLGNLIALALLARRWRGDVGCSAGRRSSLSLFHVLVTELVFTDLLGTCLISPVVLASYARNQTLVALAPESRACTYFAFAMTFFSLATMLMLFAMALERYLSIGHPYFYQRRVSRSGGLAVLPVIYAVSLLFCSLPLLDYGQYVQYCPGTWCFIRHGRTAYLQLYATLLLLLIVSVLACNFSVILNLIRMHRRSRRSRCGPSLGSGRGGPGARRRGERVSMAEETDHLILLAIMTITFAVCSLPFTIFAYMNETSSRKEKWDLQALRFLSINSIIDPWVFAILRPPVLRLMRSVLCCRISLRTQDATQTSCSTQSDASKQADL

As for `Cc1ccc(F)c2c1cc(C)n2CCNc1cc(-c2ccc(C(=O)O)c(C3CC3)c2)ncn1` [compound 174, 2-Cyclopropyl-4-{6-[2-(7-fluoro-2,4-dimethyl-indol-1-yl)-ethylamino]-pyrimidin-4-yl}-benzoic acid], the IC50 (in general, the concentration at which inhibition is half-maximal) at PTGER2 (EP2) is 27 nM; on PTRGER4 (EP4) it was 405 nM.
The like results for `COc1cccc2c1cc(C)n2CCNc1cc(-c2ccc(C(=O)O)c(C3CC3)c2)ncn1` [compound 175, 2-Cyclopropyl-4-{6-[2-(4-methoxy-2-methyl-indol-1-yl)-ethylamino]-pyrimidin-4-yl}-benzoic acid] were, in that order, 6 nM and 529 nM.
In the case of `Cc1cc(F)c(F)c2c1cc(C)n2CCNc1cc(-c2ccc(-c3c[nH]cn3)cc2)ncn1` [compound 176, [2-(6,7-Difluoro-2,4-dimethyl-indol-1-yl)-ethyl]-{6-[4-(1H-imidazol-4-yl)-phenyl]-pyrimidin-4-yl}-amine], the results for the IC50 against PTGER2 (EP2) and against PTRGER4 (EP4) were 36 nM and 71 nM, respectively.
For the compound `Cc1cc(-c2ccc(-c3cc(NCCn4c(C)cc5c(C)cc(F)cc54)ncn3)cc2)n[nH]1` [compound 178, [2-(6-Fluoro-2,4-dimethyl-indol-1-yl)-ethyl]-{6-[4-(5-methyl-1H-pyrazol-3-yl)-phenyl]-pyrimidin-4-yl}-amine], the IC50 turned out to be 18 nM against PTGER2 (EP2) and 168 nM on PTRGER4 (EP4).
The like results for `COc1cccc2c1cc(C)n2CCNc1cc(-c2ccc(-c3noc(C)n3)cc2)ncn1` [compound 179, [2-(4-Methoxy-2-methyl-indol-1-yl)-ethyl]-{6-[4-(5-methyl-[1,2,4]oxadiazol-3-yl)-phenyl]-pyrimidin-4-yl}-amine] were, in that order, 20 nM and 880 nM.
The corresponding values for `COc1cccc2c1cc(C)n2CCNc1cc(-c2ccc(-c3cc(N)no3)cc2)ncn1` [compound 180, {6-[4-(3-Amino-isoxazol-5-yl)-phenyl]-pyrimidin-4-yl}-[2-(4-methoxy-2-methyl-indol-1-yl)-ethyl]-amine] are 3 nM and 16 nM.
Consider `COc1ccc(F)c2c1cc(C)n2CCNc1cc(-c2cnc(N3CCOCC3)s2)ncn1` [compound 181], for which the figures for the IC50 against PTGER2 (EP2) and on PTRGER4 (EP4) were 173 nM and 864 nM, respectively.
Take `Cc1cc(F)cc2c1cc(C)n2CCNc1cc(-c2ccc(-c3noc(=O)[nH]3)cc2)ncn1` [compound 182]: the IC50 against PTGER2 (EP2) was 56 nM; against PTRGER4 (EP4), 141 nM.
For `Cc1cc(F)cc2c1cc(C)n2CCNc1cc(-c2ccc3c(C(=O)O)n[nH]c3c2)ncn1` [compound 183, 6-{6-[2-(6-Fluoro-2,4-dimethyl-indol-1-yl)-ethylamino]-pyrimidin-4-yl}-1H-indazole-3-carboxylic acid], the concentration for half-maximal inhibition (IC50) against PTGER2 (EP2) came out at 49 nM; against PTRGER4 (EP4), 637 nM.
As to `COc1cc(F)cc2c1cc(C)n2CCNc1cc(-c2ccc(-c3ncno3)cc2)ncn1` [compound 184, [2-(6-Fluoro-4-methoxy-2-methyl-indol-1-yl)-ethyl]-[6-(4-[1,2,4]oxadiazol-5-yl-phenyl)-pyrimidin-4-yl]-amine], the 50% inhibitory concentration (IC50) on PTGER2 (EP2) is 15 nM; at PTRGER4 (EP4) it was 170 nM.
Regarding `Cc1ccc(F)c2c1cc(C)n2CCNc1cc(-c2ccc(-c3noc(=O)[nH]3)cc2)ncn1` [compound 185, 3-(4-{6-[2-(7-Fluoro-2,4-dimethyl-indol-1-yl)-ethylamino]-pyrimidin-4-yl}-phenyl)-4H-[1,2,4]oxadiazol-5-one], the IC50 against PTGER2 (EP2) amounted to 30 nM; against PTRGER4 (EP4), 302 nM.
The corresponding values for `COc1ccc(F)c2c1cc(C)n2CCNc1cc(-c2ccc(-c3ncno3)cc2)ncn1` [compound 186, [2-(7-Fluoro-4-methoxy-2-methyl-indol-1-yl)-ethyl]-[6-(4-[1,2,4]oxadiazol-5-yl-phenyl)-pyrimidin-4-yl]-amine] are 7 nM and 124 nM.
The like results for `Cc1cc(F)c(F)c2c1cc(C)n2CCNc1cc(-c2ccc(-c3ncno3)cc2)ncn1` [compound 187, [2-(6,7-Difluoro-2,4-dimethyl-indol-1-yl)-ethyl]-[6-(4-[1,2,4]oxadiazol-5-yl-phenyl)-pyrimidin-4-yl]-amine] were, in that order, 20 nM and 198 nM.
The corresponding values for `COc1cc(F)cc2c1cc(C)n2CCNc1cc(-c2ccc(-c3c[nH]cn3)cc2)ncn1` [compound 188, [2-(6-Fluoro-4-methoxy-2-methyl-indol-1-yl)-ethyl]-{6-[4-(1H-imidazol-4-yl)-phenyl]-pyrimidin-4-yl}-amine] are 17 nM and 43 nM.
Turning to `Cc1ccc(F)c2c1cc(C)n2CCNc1cc(-c2ccc(-c3cc(N)no3)cc2)ncn1` [compound 189, {6-[4-(3-Amino-isoxazol-5-yl)-phenyl]-pyrimidin-4-yl}-[2-(7-fluoro-2,4-dimethyl-indol-1-yl)-ethyl]-amine], the IC50 on PTGER2 (EP2) came to 19 nM; against PTRGER4 (EP4) it was 106 nM.
The corresponding values for `COc1ccc(F)c2c1cc(C)n2CCNc1cc(-c2ccc(-n3cccn3)cc2)ncn1` [compound 190] are 53 nM and 193 nM.
The corresponding values for `COc1ccc(F)c2c1cc(C)n2CCNc1cc(-c2ccc(-c3c[nH]cn3)cc2)ncn1` [compound 191, [2-(7-Fluoro-4-methoxy-2-methyl-indol-1-yl)-ethyl]-{6-[4-(1H-imidazol-4-yl)-phenyl]-pyrimidin-4-yl}-amine] are 13 nM and 38 nM.
The like results for `COc1ccc(F)c2c1cc(C)n2CCNc1cc(-c2ccc(-c3ncc[nH]3)cc2)ncn1` [compound 192, [2-(7-Fluoro-4-methoxy-2-methyl-indol-1-yl)-ethyl]-{6-[4-(1H-imidazol-2-yl)-phenyl]-pyrimidin-4-yl}-amine] were, in that order, 23 nM and 287 nM.
Consider `COc1ccc(F)c2c1cc(C)n2CCNc1cc(-c2ccc(-c3ccn[nH]3)cc2)ncn1` [compound 193, [2-(7-Fluoro-4-methoxy-2-methyl-indol-1-yl)-ethyl]-{6-[4-(2H-pyrazol-3-yl)-phenyl]-pyrimidin-4-yl}-amine], for which the figures for the IC50 on PTGER2 (EP2) and against PTRGER4 (EP4) were 4 nM and 39 nM, respectively.
The corresponding values for `COc1cccc2c1cc(C)n2CCNc1cc(-c2ccc(-c3noc(=O)[nH]3)cc2)ncn1` [compound 194, 3-(4-{6-[2-(4-Methoxy-2-methyl-indol-1-yl)-ethylamino]-pyrimidin-4-yl}-phenyl)-4H-[1,2,4]oxadiazol-5-one] are 10 nM and 172 nM.
The like results for `Cc1nc(-c2ccc(-c3cc(NCCn4c(C)cc5c(C)ccc(F)c54)ncn3)cc2)cs1` [compound 195] were, in that order, 260 nM and 534 nM.
As to `CCN1Cc2cc(-c3cc(NCCn4c(C)cc5c(OC)cccc54)ncn3)ccc2C1=O` [compound 197, 2-Ethyl-5-{6-[2-(4-methoxy-2-methyl-indol-1-yl)-ethylamino]-pyrimidin-4-yl}-2,3-dihydro-isoindol-1-one], the IC50 against PTGER2 (EP2) was found to be 32 nM; against PTRGER4 (EP4) it was 751 nM.
The corresponding values for `Cc1cc2c(Cl)ccc(Cl)c2n1CCNc1cc(-c2ccc3[nH]c(C(=O)O)cc3c2)ncn1` [compound 198] are 96 nM and 299 nM.
The like results for `COc1cc(F)c(F)c2c1cc(C)n2CCNc1cc(-c2ccc3c(c2)CC(=O)N3)ncn1` [compound 199] were, in that order, 102 nM and 166 nM.
On to `Cc1cc(F)cc2c1cc(C)n2CCNc1cc(-c2ccc(-c3cc(O)no3)cc2)ncn1` [compound 200, 5-(4-{6-[2-(6-Fluoro-2,4-dimethyl-indol-1-yl)-ethylamino]-pyrimidin-4-yl}-phenyl)-isoxazol-3-ol], for which the IC50 was 37 nM against PTGER2 (EP2) and 111 nM on PTRGER4 (EP4).
The corresponding values for `Cc1ccc(Cl)c2c1cc(C)n2CCNc1cc(-c2ccc3[nH]c(C(=O)O)cc3c2)ncn1` [compound 201] are 232 nM and 389 nM.
The like results for `COc1ccc(F)c2c1cc(C)n2CCNc1cc(-c2ccc(-c3cnco3)cc2)ncn1` [compound 202, [2-(7-Fluoro-4-methoxy-2-methyl-indol-1-yl)-ethyl]-[6-(4-oxazol-5-yl-phenyl)-pyrimidin-4-yl]-amine] were, in that order, 16 nM and 105 nM.
The corresponding values for `COc1ccc(F)c2c1cc(C)n2CCNc1cc(-c2ccc3c(c2)CN(C)C3=O)ncn1` [compound 204, 5-{6-[2-(7-Fluoro-4-methoxy-2-methyl-indol-1-yl)-ethylamino]-pyrimidin-4-yl}-2-methyl-2,3-dihydro-isoindol-1-one] are 31 nM and 182 nM.
Turning to `COc1cc(F)cc2c1cc(C)n2CCNc1cc(-c2ccc(-c3ccns3)cc2)ncn1` [compound 205, [2-(6-Fluoro-4-methoxy-2-methyl-indol-1-yl)-ethyl]-[6-(4-isothiazol-5-yl-phenyl)-pyrimidin-4-yl]-amine], the half-maximal inhibitory concentration (IC50) was 44 nM at PTGER2 (EP2) and 334 nM against PTRGER4 (EP4).
The corresponding values for `CCN1Cc2cc(-c3cc(NCCn4c(C)cc5c(C)ccc(F)c54)ncn3)ccc2C1=O` [compound 206] are 88 nM and 740 nM.
As to `COc1ccc(F)c2c1cc(C)n2CCNc1cc(-c2ccc(-c3nnc[nH]3)cc2)ncn1` [compound 208, [2-(7-Fluoro-4-methoxy-2-methyl-indol-1-yl)-ethyl]-{6-[4-(4H-[1,2,4]triazol-3-yl)-phenyl]-pyrimidin-4-yl}-amine], the IC50 against PTGER2 (EP2) came out at 11 nM; against PTRGER4 (EP4) it was 102 nM.
The like results for `CNc1cc(-c2cc(NCCn3c(C)cc4c(C)cc(F)cc43)ncn2)ccc1C(=O)O` [compound 209] were, in that order, 3 nM and 123 nM.
As to `CCOc1cc(-c2cc(NCCn3c(C)cc4c(C)cc(F)c(Cl)c43)ncn2)ccc1C(=O)O` [compound 210], the IC50 on PTGER2 (EP2) was determined as 472 nM; at PTRGER4 (EP4) it was 991 nM.

(Values after patent US12011444B2, “N-substituted indole derivatives as PGE2 receptor modulators” (Idorsia Pharmaceuticals Ltd, priority 2015, dated 2024).)
